Laboratory results published in US7893299B2, “Interleukin-1 and tumor necrosis factor-αmodulators; syntheses of such modulators and methods of using such modulators” (Nereus Pharmaceuticals, Inc., priority 2005, dated 2011).

Key:
[1] = system: MM cell lines (MM.1S, MM.1R, OCI-MyS, OPM-1, Dox-40); experiment: viability of MM cell lines (MM.1S, MM.1R, OCI-MyS, OPM-1, Dox-40); type: cell-based; conditions: 48 h; all cell lines; read-out: IC50 range, decrease in cell viability
Procedure: (§1) Transcription factor NF-KB is linked to growth and survival of multiple myeloma (MM) cells and blockade of NF-KB activity. NPI-1387 (Formula IIB-b1; compound 24 shown above under scheme 4), a potent small-molecule inhibitor of upstream activator of NF-KB, was administered to MM cells and its effect on the viability of MM cells, including those resistant to conventional agents dexamethasone or doxorubicin is shown.

PC-3 colony formation = experiment: PC-3 clonogenicity assay; type: cell-based
Procedure: PC-3 cells in 10 cm tissue culture dishes (200 cells/dish) were treated with 5 μM, 10 μM and 20 μM NPI-1387 for 0.5-24 hours in triplicates. DMSO was used as vehicle control. After each time point of drug treatment, the medium was removed, the dishes were washed two times with Dulbecco's phosphate buffered saline (DPBS), and supplied with fresh medium. Cells were cultured for 10 days with the medium replenished every 3 days. On the 10th day, dishes were washed with cold DPBS, fixed for 10 minutes in ice-cold 100% methanol at 4° C., and the colonies were stained with 0.5% (w/v) crystal violet. Colonies were counted manually, and the results expressed as % of colonies in relation to their respective vehicle control.

MM cells = experiment: apoptosis of MM cells (DAPI, PARP cleavage, caspases); type: cell-based
Procedure: as §1
Besides nuclear condensation, NF-KB inhibitor triggered proteolytic cleavage of poly (ADP ribose) polymerase (PARP), a hallmark of apoptosis.
Both caspase-8 and caspase-9 activate downstream caspase-3. […] Collectively, these findings show the efficacy of NF-KB inhibitor to enhance MM cell killing, overcome drug-resistance, and improve patient outcome in MM.

Panc1 cells = experiment: apoptosis by PI FACS analysis, Panc1; type: cell-based, human; conditions: combination treatment with Salinosporamide A, increased from 4%
Excerpt: Novel diterpene inhibitors of NFκB derived from acanthoic acid (NPI-1342 (Formula IIB-a1) and NPI-1387; compound 24 under scheme 4 above) show measurable effects in human pancreatic cancer cell lines in vitro. Seven of the nine cell lines were moderately sensitive to apoptosis induced by death receptor ligand Tumor Necrosis Factor (TNF) related apoptosis-inducing ligand (TRAIL). […] Specific silencing of NFkB/p65 expression mimicked these effects. Furthermore, combination treatment of Salinosporamide A and either NPI-1342 or NPI-1387 led to induction of apoptosis as measured by PI FACS analysis. Specifically, levels of DNA fragmentation increased from 4% to 50% in HS766T cells and from 4% to 52% in Panc1 cells. The inhibitory effects of NPI-1342, NPI-1387 on NFκB were evaluated by Electromobility Shift Assays and confirmed by confocal microscopy.

[2] = system: NF-κB p65 subunit nuclear translocation; type: cell-based; conditions: LPS-stimulated RAW264.7; 5, 10 and 20 μM
Procedure: Cells were pretreated with NPI-1387 (compound 24 under scheme 4 above) at 5, 10 and 20 μM for 1 hr, and then stimulated with 50 ng/ml LPS for 30 min. Coverslips were transferred to clean plates, washed twice in Dulbecco's phosphate buffered saline (DPBS), fixed in 10% formaldehyde for 10 min, and permeabilized with 0.2% Triton X-100 for additional 10 min. Blocking medium (DPBS, 2% BSA, 0.1% Triton X-100) was added for 2 h, and removed by aspiration. Polyclonal goat anti-p65 antibody (Santa Cruz Biotechnology) was added at a 1:1000 dilution for 1 hr. The wells were washed 3 times with DPBS containing 0.1% Triton X-100, and […] of Alexa-488-conjugated anti-goat antibody (1:1000 dilution, Molecular Probes) were added for 30 min. Wells were washed again, and the coverslips were mounted face-down on microscope slides using Vectashield (Vector) mounting medium. Slides were observed under an Olympus fluorescent microscope, images acquired using a Magnafire digital camera, and processed using Adobe Photoshop.

C=CC(=O)C1(C)CCCC2(C)C3=CCC(C)(C=C)C[C@@H]3CC[C@H]12 (stereo in doubt) [NPI-1387, 1-[(1S,4aS,7R)-1,4a,7-Trimethyl-7-vinyl-1,2,3,4,4a,6,7,8,8a,9,10,10a-dodecahydro-1-phenanthrenyl]-2-propen-1-one]
IC50 [1]: 25 to 40 µM | PC-3 colony formation (PC-3 colony formation; 5 μM, 10 μM and 20 μM for 0.5-24 hours): inhibits the colony formation of PC-3 cancer cells in a time-dependent and dose-dependent fashion | PC-3 colony formation (PC-3 colony formation; exposure of 6 hr to 20 μM): completely abolish | Apoptic signaling in MM cells, intrinsic and extrinsic pathways (MM cells): triggered by NPI-1387 | caspase activation (MM cells; 25 μM): induces activation of caspase-8, caspase-9, followed by caspase-3 cleavage | apoptosis (nuclear condensation, PARP cleavage) (MM cells; respective IC50 for 48 h): significant apoptosis | levels of DNA fragmentation (Panc1 cells): 52% | nuclear translocation of NF-κB (p65) / activated IRAK1 [2]: inhibits the NF-κB p65 subunit nuclear translocation in a dose-dependent manner
